Experimental data reported in US20250262201A1, “COMPOUNDS AND METHODS USEFUL FOR STABILIZING PHENYLALANINE HYDROXYLASE MUTATIONS” (Agios Pharmaceuticals, Inc., priority 2022, published 2025).

target: T1, human PAH with the R408W mutation (Homo sapiens, UniProt P00439, R408W); assay: Cell Based Phenylalanine Flux Assay; parameters: scale not given here; conditions: A375 R408W cells, 24 hrs with compound, then 20 μM sepiapterin and 800 μM 13C9,15N-Phenylalanine for 4 hours; 13C-Tyrosine by LC-MS; average where tested multiple times
T1 construct: expressed in transfected cells
T1 sequence (P00439 1-452 R408W): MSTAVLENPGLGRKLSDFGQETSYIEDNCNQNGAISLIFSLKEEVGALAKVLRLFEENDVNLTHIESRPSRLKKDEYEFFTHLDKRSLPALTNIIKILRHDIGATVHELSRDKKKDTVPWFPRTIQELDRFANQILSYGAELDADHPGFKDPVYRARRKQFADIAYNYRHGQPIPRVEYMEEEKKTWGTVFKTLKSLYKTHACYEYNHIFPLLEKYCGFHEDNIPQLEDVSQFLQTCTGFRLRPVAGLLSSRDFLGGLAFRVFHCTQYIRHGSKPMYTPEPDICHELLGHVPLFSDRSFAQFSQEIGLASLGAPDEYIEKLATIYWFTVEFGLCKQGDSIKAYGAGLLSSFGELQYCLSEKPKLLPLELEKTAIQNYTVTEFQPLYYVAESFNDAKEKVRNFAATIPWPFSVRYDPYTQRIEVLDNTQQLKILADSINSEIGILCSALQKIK

AC50 | Compound
E, E | Cc1ncoc1C(=O)N1C[C@@H](C)c2[nH]cnc2[C@@H]1c1cc2ccccc2cn1 (single isomer, unassigned)
E, E | O=C(CC1(O)CCC1)N1CCc2[nH]cnc2C1c1cn2ccccc2n1 (stereo not shown)
E, E | CC1CN(C(=O)c2ocnc2C(F)(F)F)C(c2cc3ccccc3cn2)c2nc[nH]c21 [(4S, 7R) diastereomer of 3-[7-methyl-5-[4-(trifluoromethyl)-]

same assay, conditions: A375 R408W cells, 24 hrs with compound, then 20 μM sepiapterin and 800 μM 13C9,15N-Phenylalanine for 4 hours; 13C-Tyrosine by LC-MS; average where tested multiple times; read-out: AC50

AC50 [µM] | Compound
1 to 5 | CC1CN(C(=O)c2cnn3cc(CN(C)C)ccc23)C(c2cc3ccccc3cn2)c2nc[nH]c21 (stereo not shown) [listing 1 of 2 here]
1 to 5 | CC(C)(F)c1ccc2c(C(=O)N3CCc4[nH]cnc4C3c3ccc4ccccc4n3)cnn2c1 (stereo not shown) [listing 1 of 2 here]
> 5 | O=C(c1cnc(C2CC2)s1)N1CCc2[nH]cnc2C1c1cn2ccccc2n1 (stereo not shown) [listing 1 of 2 here]
1 to 5 | COCc1ncc(C(=O)N2CCc3[nH]cnc3[C@@H]2c2ccc3ccccc3n2)o1 (single isomer, unassigned)
> 5 | CN1CCN(c2nnc(C(=O)N3CCc4[nH]cnc4C3c3ccc4ccccc4n3)o2)CC1 (stereo not shown) [listing 1 of 2 here]
1 to 5 | Cc1nc(N(C)C)oc1C(=O)N1CCc2[nH]cnc2C1c1ccc2ccccc2n1 (stereo not shown)
> 5 | O=C(c1nnc(N2CC(F)C2)o1)N1CCc2[nH]cnc2C1c1ccc2ccccc2n1 (stereo not shown)
1 to 5 | O=C(c1cnc(C2CC2)s1)N1CCc2[nH]cnc2C1c1cn2ccccc2n1 (stereo not shown) [listing 2 of 2 here]
1 to 5 | Cc1ncoc1C(=O)N1CCc2[nH]cnc2C1c1ccc2ccccc2n1 (stereo not shown)
> 5 | O=C(c1cnco1)N1CCc2[nH]cnc2C1c1ccc2ccccc2n1 (stereo not shown)
> 5 | O=C(c1nnc(N2CCOCC2)o1)N1CCc2[nH]cnc2C1c1cn2ccccc2n1 (stereo not shown)
> 5 | Cc1nnc(CCC(=O)N2CCc3[nH]cnc3C2c2cn3ccccc3n2)o1 (stereo not shown)
1 to 5 | CC1CN(C(=O)c2cnn3cc(CN(C)C)ccc23)C(c2cc3ccccc3cn2)c2nc[nH]c21 (stereo not shown) [listing 2 of 2 here]
> 5 | CC(C)(F)c1ccc2c(C(=O)N3CCc4[nH]cnc4C3c3ccc4ccccc4n3)cnn2c1 (stereo not shown) [listing 2 of 2 here]
> 5 | O=C(c1ncn2ccccc12)N1CCc2[nH]cnc2C1c1ccc2ccccc2n1 (stereo not shown)
1 to 5 | CN1CCN(c2nnc(C(=O)N3CCc4[nH]cnc4C3c3ccc4ccccc4n3)o2)CC1 (stereo not shown) [listing 2 of 2 here]
1 to 5 | O=C(c1cnc(C(F)(F)F)s1)N1CCc2[nH]cnc2C1c1cn2ccccc2n1 (stereo not shown)
1 to 5 | CC(C)(O)c1nc(C2CC2)c(C(=O)N2CCCc3[nH]cnc3C2c2cc3ccccc3cn2)o1 (stereo not shown)
> 5 | Cc1nc(CCN2CC(F)C2)oc1C(=O)N1CCc2[nH]cnc2C1c1ccc2ccccc2n1 (stereo not shown)
> 5 | O=C(C1CN(c2ccccn2)C1)N1CCc2[nH]cnc2C1c1ccc2ccccc2n1 (stereo not shown)
1 to 5 | Cc1nc(N2CCC(F)CC2)oc1C(=O)N1CCc2[nH]cnc2C1c1ccc2ccccc2n1 (stereo not shown)
1 to 5 | CN(C)Cc1ccc2c(C(=O)N3CCc4[nH]cnc4C3c3ccc4ccccc4n3)cnn2c1 (stereo not shown)
> 5 | O=C(CCc1ccccc1)N1CCc2[nH]cnc2C1c1cn2ccccc2n1 (stereo not shown)
> 5 | Cc1nnc(C(=O)N2CCc3[nH]cnc3C2c2ccc3ccccc3n2)o1 (stereo not shown)
1 to 5 | CC1CN(C(=O)c2nnc(NC3CC3)o2)C(c2cc3ccccc3cn2)c2nc[nH]c21 (stereo not shown)

Compound | AC50 [µM]
COCCNc1nnc(C(=O)N2C[C@@H](C)c3[nH]cnc3[C@H]2c2cc3ccccc3cn2)o1 (single isomer, unassigned) | > 5

same assay, conditions: A375 cells expressing human R408W PAH; 24 hrs compound incubation; 13C-Tyrosine by LC-MS; average where tested multiple times; read-out: AC50

AC50 [µM] | Compound
0.5 to 1 | O=C(c1nnc(NC2CC2)o1)N1CCc2[nH]cnc2[C@H]1c1cc2ccccc2cn1 [Example 370, (R)-(5-(cyclopropylamino)-1,3,4-oxadiazol-2-yl)(4-(isoquinolin-3-yl)-6,7-dihydro-1H-imidazo[4,5-c]pyridin-5(4H)-yl)methanone]
1 to 5 | Cn1nc(C(F)F)cc1C(=O)N1CCc2[nH]cnc2C1c1ccc2ccccc2n1 (stereo in doubt) [Example 74, (S)-(3-(difluoromethyl)-1-methyl-1H-pyrazol-5-yl)(4-(quinolin-2-yl)-6,7-dihydro-1H-imidazo[4,5-c]pyridin-5(4H)-yl)methanone]
1 to 5 | C[C@@H]1CN(C(=O)c2nnc(-c3ccc(F)cn3)o2)[C@H](c2cc3ccccc3cn2)c2nc[nH]c21 [Example 494, (5-(5-fluoropyridin-2-yl)-1,3,4-oxadiazol-2-yl)((4R,7R)-4-(isoquinolin-3-yl)-7-methyl-6,7-dihydro-1H-imidazo[4,5-c]pyridin-5(4H)-yl)methanone]
< 0.5 | CC(C)(F)c1ncc(C(=O)N2CCc3[nH]cnc3[C@H]2c2cc3ccccc3cn2)o1 [Example 339, (R)-(2-(2-fluoropropan-2-yl)oxazol-5-yl)(4-(isoquinolin-3-yl)-6,7-dihydro-1H-imidazo[4,5-c]pyridin-5(4H)-yl)methanone]
0.5 to 1 | Cc1nnc(CC(=O)N2CCc3[nH]cnc3[C@H]2c2cc3ccccc3cn2)s1 [Example 351, (R)-1-(4-(isoquinolin-3-yl)-6,7-dihydro-1H-imidazo[4,5-c]pyridin-5(4H)-yl)-2-(5-methyl-1,3,4-thiadiazol-2-yl)ethanone]
< 0.5 | O=C(c1nnc(-c2cc(C(F)(F)F)ccn2)o1)N1CCc2[nH]cnc2[C@H]1c1ncc2ccccc2n1 [Example 173, (S)-(4-(quinazolin-2-yl)-6,7-dihydro-1H-imidazo[4,5-c]pyridin-5(4H)-yl)(5-(4-(trifluoromethyl)pyridin-2-yl)-1,3,4-oxadiazol-2-yl)methanone]
> 5 | O=C(c1nnc(-c2ccc(F)c(F)c2)o1)N1CCc2[nH]cnc2C1c1ccc2ccccc2n1 (stereo in doubt) [Example 70, (S)-(5-(3,4-difluorophenyl)-1,3,4-oxadiazol-2-yl)(4-(quinolin-2-yl)-6,7-dihydro-1H-imidazo[4,5-c]pyridin-5(4H)-yl)methanone]
0.5 to 1 | Cn1cncc1-c1nc(C(F)F)c(C(=O)N2CCc3[nH]cnc3[C@@H]2c2ncc3ccccc3n2)o1 [Example 281, (R)-(4-(difluoromethyl)-2-(1-methyl-1H-imidazol-5-yl)oxazol-5-yl)(4-(quinazolin-2-yl)-6,7-dihydro-1H-imidazo[4,5-c]pyridin-5(4H)-yl)methanone]
< 0.5 | O=C(c1nnc(-c2ccc(C(F)(F)F)cn2)o1)N1CCc2[nH]cnc2[C@H]1c1cc2ccccc2cn1 [Example 442, (R)-(4-(isoquinolin-3-yl)-6,7-dihydro-1H-imidazo[4,5-c]pyridin-5(4H)-yl)(5-(5-(trifluoromethyl)pyridin-2-yl)-1,3,4-oxadiazol-2-yl)methanone]
< 0.5 | O=C(c1cnn2cc(-c3ccncc3)ccc12)N1CCc2[nH]cnc2[C@H]1c1cc2ccccc2cn1 [Example 486, (R)-(4-(isoquinolin-3-yl)-6,7-dihydro-1H-imidazo[4,5-c]pyridin-5(4H)-yl)(6-(pyridin-4-yl)pyrazolo[1,5-a]pyridin-3-yl)methanone]
0.5 to 1 | Cc1nc(-c2ccccn2)oc1C(=O)N1CCc2[nH]cnc2C1c1ccc2ccccc2n1 (stereo in doubt) [Example 31, (R)-(4-methyl-2-(pyridin-2-yl)oxazol-5-yl)(4-(quinolin-2-yl)-6,7-dihydro-1H-imidazo[4,5-c]pyridin-5(4H)-yl)methanone]
< 0.5 | O=C(CC1(O)CCC1)N1CCc2[nH]cnc2C1c1ccc2ccccc2n1 (stereo in doubt) [Example 59, (R)-2-(1-hydroxycyclobutyl)-1-(4-(quinolin-2-yl)-6,7-dihydro-1H-imidazo[4,5-c]pyridin-5(4H)-yl)ethanone]
< 0.5 | O=C(c1cnc(-c2ccccn2)s1)N1CCc2[nH]cnc2[C@H]1c1cc2ccccc2cn1 [Example 300, (R)-(4-(isoquinolin-3-yl)-6,7-dihydro-1H-imidazo[4,5-c]pyridin-5(4H)-yl)(2-(pyridin-2-yl)thiazol-5-yl)methanone]
< 0.5 | O=C(c1nnc(-c2ccc(F)cn2)o1)N1CCc2[nH]cnc2[C@H]1c1ncc2ccccc2n1 [Example 168, (S)-(5-(5-fluoropyridin-2-yl)-1,3,4-oxadiazol-2-yl)(4-(quinazolin-2-yl)-6,7-dihydro-1H-imidazo[4,5-c]pyridin-5(4H)-yl)methanone]
< 0.5 | O=C(c1nnc(-c2ccncn2)o1)N1CCc2[nH]cnc2[C@H]1c1cc2ccccc2cn1 [Example 471, (R)-(4-(isoquinolin-3-yl)-6,7-dihydro-1H-imidazo[4,5-c]pyridin-5(4H)-yl)(5-(pyrimidin-4-yl)-1,3,4-oxadiazol-2-yl)methanone]
1 to 5 | O=C(c1nnc(-c2ccc(C(F)(F)F)cn2)o1)N1CCc2[nH]cnc2[C@@H]1c1ncc2ccccc2n1 [Example 169, (R)-(4-(quinazolin-2-yl)-6,7-dihydro-1H-imidazo[4,5-c]pyridin-5(4H)-yl)(5-(5-(trifluoromethyl)pyridin-2-yl)-1,3,4-oxadiazol-2-yl)methanone]
0.5 to 1 | O=C(c1nnc(-c2ccc(C(F)(F)F)cn2)o1)N1CCc2[nH]cnc2[C@H]1c1ncc2ccccc2n1 [Example 170, (S)-(4-(quinazolin-2-yl)-6,7-dihydro-1H-imidazo[4,5-c]pyridin-5(4H)-yl)(5-(5-(trifluoromethyl)pyridin-2-yl)-1,3,4-oxadiazol-2-yl)methanone]
